Assay results from the NIST ThermoML archive (doi:10.1021/je300958c).

Assay: relative permittivity at zero frequency (dimensionless)
Conditions: 101.33 kPa, Liquid, impedance/gain phase analyzer

N#CCCCC#N [pentanedinitrile]
Conditions | relative permittivity at zero frequency
248.15 K | 40.78
250.65 K | 40.45
253.15 K | 40.08
255.65 K | 39.78
258.15 K | 39.42
260.65 K | 39.08
263.15 K | 38.74
265.65 K | 38.4
268.15 K | 38.1
270.65 K | 37.78
273.15 K | 37.44
275.65 K | 37.16
278.15 K | 36.83
280.65 K | 36.56
283.15 K | 36.27
285.65 K | 35.97
288.15 K | 35.71
290.65 K | 35.41
293.15 K | 35.14
295.65 K | 34.87
298.15 K | 34.6
300.65 K | 34.33
303.15 K | 34.04
305.65 K | 33.83
308.15 K | 33.59
310.65 K | 33.35
313.15 K | 33.13
315.65 K | 32.87
318.15 K | 32.67
320.65 K | 32.44
323.15 K | 32.21

N#CCCC#N [butanedinitrile]
Conditions | relative permittivity at zero frequency
333.15 K | 56.09
335.65 K | 55.46
338.15 K | 54.85
340.65 K | 54.29
343.15 K | 53.68
345.65 K | 53.11
348.15 K | 52.52
350.65 K | 51.95
353.15 K | 51.36
355.65 K | 50.81
358.15 K | 50.28
360.65 K | 49.73
363.15 K | 49.18
365.65 K | 48.66
368.15 K | 48.14
370.65 K | 47.63
373.15 K | 47.11

N#CCCCCCC#N [heptanedinitrile]
Conditions | relative permittivity at zero frequency
248.15 K | 36.21
250.65 K | 35.82
253.15 K | 35.44
255.65 K | 35.06
258.15 K | 34.7
260.65 K | 34.35
263.15 K | 33.99
265.65 K | 33.65
268.15 K | 33.31
270.65 K | 32.98
273.15 K | 32.66
275.65 K | 32.36
278.15 K | 32.04
280.65 K | 31.73
283.15 K | 31.43
285.65 K | 31.14
288.15 K | 30.86
290.65 K | 30.57
293.15 K | 30.28
295.65 K | 30
298.15 K | 29.71
300.65 K | 29.45
303.15 K | 29.18
305.65 K | 28.92
308.15 K | 28.67
310.65 K | 28.42
313.15 K | 28.17
315.65 K | 27.94
318.15 K | 27.68
320.65 K | 27.46
323.15 K | 27.23
325.65 K | 27
328.15 K | 26.77
330.65 K | 26.56
333.15 K | 26.32

N#CCCCCCCC#N [octanedinitrile]
Conditions | relative permittivity at zero frequency
273.15 K | 28.23
275.65 K | 28
278.15 K | 27.77
280.65 K | 27.52
283.15 K | 27.29
285.65 K | 27.06
288.15 K | 26.82
290.65 K | 26.6
293.15 K | 26.36
295.65 K | 26.16
298.15 K | 25.94
300.65 K | 25.75
303.15 K | 25.55
305.65 K | 25.32
308.15 K | 25.11
310.65 K | 24.94
313.15 K | 24.74
315.65 K | 24.55
318.15 K | 24.37
320.65 K | 24.2
323.15 K | 24
325.65 K | 23.8
328.15 K | 23.63
330.65 K | 23.47
333.15 K | 23.3

N#CCCCCC#N [hexanedinitrile]
Conditions | relative permittivity at zero frequency
278.15 K | 34.7
280.65 K | 34.35
283.15 K | 34.01
285.65 K | 33.67
288.15 K | 33.36
290.65 K | 33.04
293.15 K | 32.73
295.65 K | 32.41
298.15 K | 32.12
300.65 K | 31.83
303.15 K | 31.53
305.65 K | 31.26
308.15 K | 30.96
310.65 K | 30.67
313.15 K | 30.38
315.65 K | 30.09
318.15 K | 29.8
320.65 K | 29.5
323.15 K | 29.22
325.65 K | 28.94
328.15 K | 28.69
330.65 K | 28.46
333.15 K | 28.21
335.65 K | 27.98
338.15 K | 27.73
340.65 K | 27.52
343.15 K | 27.3
345.65 K | 27.09
348.15 K | 26.83
350.65 K | 26.6
353.15 K | 26.4
